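Briefly, cells in 96-well plates were exposed to five compound concentrations for 48 h, and endpoints were estimated by linear interpolation. TGI: concentration producing complete growth inhibition.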

From PubChem BioAssay (NCI) come the findings set out here.

Among the test systems are 786-0 renal; A549 NSCLC; ACHN renal; COLO 205 colon; DU-145 prostate; HCC-2998 colon; HT29 colon; LOX IMVI melanoma; MDA-MB-231 breast; MDA-MB-435; NCI-H23 lung; OVCAR-5 ovarian; PC-3 prostate; SK-OV-3 ovarian; SN12C renal; SNB-19 CNS; SR leukemia; U251 CNS; UACC-257 melanoma.
Test in all cases: NCI-60 cell line screen, 48 h

Consider `O=c1oc2ccccc2cc1-c1cn2ccccc2n1`, for which the TGI was 13.4 µM in the assay on 786-0 renal; 21 µM in the assay with A549 NSCLC; 11.4 µM in the assay on ACHN renal; over 100 µM with COLO 205 colon; 21 µM in the assay with DU-145 prostate; 39.4 µM with HCC-2998 colon. Further, the TGI is 51.7 µM in the assay with HT29 colon; 33.4 µM in the assay on LOX IMVI melanoma; 18.5 µM in the assay on MDA-MB-231 breast; 14.5 µM with MDA-MB-435; 29.6 µM in the assay with NCI-H23 lung; 46.7 µM in the assay with OVCAR-5 ovarian. Further, the TGI is 12.8 µM with PC-3 prostate; 15.6 µM with SK-OV-3 ovarian; 17.7 µM in the assay with SN12C renal; 12.7 µM in the assay on SNB-19 CNS; over 35.5 µM with SR leukemia; 5.66 µM in the assay with U251 CNS. For the same molecule, the TGI in the assay on UACC-257 melanoma was found to be 14.3 µM.
For `CN(C)CC1CCC/C(=C\c2ccc(Cl)cc2)C1=O` (configuration not stated), the TGI is 3.22 µM in the assay with 786-0 renal; 32.4 µM in the assay with A549 NSCLC; 7.04 µM with ACHN renal; 4.82 µM with COLO 205 colon; 29.1 µM in the assay on DU-145 prostate; 18.1 µM with HCC-2998 colon. Also, the TGI in the assay on HT29 colon was over 32.7 µM; in the assay with LOX IMVI melanoma it was 3.25 µM; in the assay with MDA-MB-231 breast, 9.21 µM; in the assay with MDA-MB-435, 9.22 µM; in the assay on NCI-H23 lung, 22.5 µM; with OVCAR-5 ovarian, 35.6 µM. Besides, the TGI in the assay on PC-3 prostate is 8 µM; in the assay with SK-OV-3 ovarian it was 23.2 µM; in the assay on SN12C renal, 8.55 µM; with SNB-19 CNS, 26.5 µM; in the assay on SR leukemia it was over 100 µM; in the assay on U251 CNS, 9.08 µM. This molecule gave a TGI in the assay with UACC-257 melanoma of 12.3 µM.
Regarding `CCOC(=O)/C=C/[C@H](O[Si](CC)(CC)CC)C(C)(C)C`, the TGI in the assay on 786-0 renal, in the assay with A549 NSCLC, in the assay on ACHN renal, with COLO 205 colon, with DU-145 prostate and in the assay with HCC-2998 colon was over 100 µM in each case. Moreover, the TGI was over 100 µM with HT29 colon; 46.2 µM in the assay with LOX IMVI melanoma; over 100 µM in the assay on MDA-MB-231 breast; over 100 µM with MDA-MB-435; over 100 µM with NCI-H23 lung; over 100 µM with OVCAR-5 ovarian. Also, the TGI in the assay with PC-3 prostate was over 100 µM; in the assay on SK-OV-3 ovarian, over 100 µM; with SN12C renal, over 100 µM; in the assay with SNB-19 CNS, over 100 µM; with SR leukemia, 50.7 µM; in the assay with U251 CNS, 65.8 µM. In addition, in the assay with UACC-257 melanoma, the TGI was over 100 µM.
In the case of `CC(=O)N(CCc1ccccc1)C(C#N)c1ccccc1` (configuration not stated), the TGI with 786-0 renal, with A549 NSCLC, in the assay on ACHN renal, in the assay on COLO 205 colon, in the assay on DU-145 prostate and in the assay on HCC-2998 colon was over 100 µM in each case. Besides, the TGI in the assay with HT29 colon, in the assay on LOX IMVI melanoma, in the assay on MDA-MB-231 breast, in the assay on MDA-MB-435, in the assay with NCI-H23 lung and in the assay with OVCAR-5 ovarian was over 100 µM each time. In addition, the TGI in the assay on PC-3 prostate, in the assay with SK-OV-3 ovarian, with SN12C renal, with SNB-19 CNS, in the assay with SR leukemia and in the assay on U251 CNS was over 100 µM throughout. The TGI in the assay with UACC-257 melanoma is over 100 µM.
Take `Cn1c(=O)oc2cc(C(O)CN3CCN(Cc4ccccn4)CC3)c(Cl)cc21` (configuration not stated): the TGI in the assay on 786-0 renal, with A549 NSCLC, in the assay on ACHN renal, in the assay with COLO 205 colon, in the assay with DU-145 prostate and in the assay with HCC-2998 colon was over 100 µM in each case. For the same molecule, the TGI with HT29 colon, with LOX IMVI melanoma, in the assay on MDA-MB-231 breast, in the assay on MDA-MB-435, with NCI-H23 lung and in the assay with OVCAR-5 ovarian was over 100 µM in each case. The TGI in the assay on PC-3 prostate, in the assay with SK-OV-3 ovarian, with SN12C renal, with SNB-19 CNS, in the assay on SR leukemia and with U251 CNS was over 100 µM each time. Further, in the assay on UACC-257 melanoma, the TGI was over 100 µM.
Take `O=C(/C=C/c1ccc(OCc2cccc(Cl)c2)cc1)NO`: the TGI in the assay with 786-0 renal was 23.9 µM; in the assay on A549 NSCLC it was 51.2 µM; in the assay with ACHN renal, 23.5 µM; in the assay on COLO 205 colon it was 32 µM; with DU-145 prostate it was 40.8 µM; in the assay on HCC-2998 colon it was 31 µM. Further, the TGI in the assay on HT29 colon was determined as 28.2 µM; in the assay with LOX IMVI melanoma, 24.4 µM; in the assay with MDA-MB-231 breast, 44.1 µM; in the assay on MDA-MB-435, 53.3 µM; in the assay with NCI-H23 lung it was 26 µM; with OVCAR-5 ovarian it was 71.5 µM. The TGI with PC-3 prostate came out at 47.4 µM; with SK-OV-3 ovarian, 49.3 µM; with SN12C renal it was 49.4 µM; in the assay on SNB-19 CNS, 60.7 µM; with SR leukemia, 11.3 µM; in the assay with U251 CNS, 47.9 µM. Moreover, the TGI with UACC-257 melanoma is over 100 µM.
As to `COc1ccc2c(c1)nc1n2C(c2c(Cl)cccc2Cl)SC1` (configuration not stated), the TGI was over 100 µM in the assay on 786-0 renal; over 100 µM in the assay on A549 NSCLC; over 100 µM with ACHN renal; over 100 µM in the assay on COLO 205 colon; over 100 µM in the assay with DU-145 prostate; over 86.8 µM in the assay on HCC-2998 colon. Further, the TGI in the assay with HT29 colon was 85.9 µM; with LOX IMVI melanoma it was over 100 µM; in the assay on MDA-MB-231 breast, over 100 µM; in the assay with MDA-MB-435, over 23.6 µM; with NCI-H23 lung it was over 100 µM; with OVCAR-5 ovarian it was over 100 µM. Also, the TGI was over 82.3 µM in the assay with PC-3 prostate; over 100 µM in the assay on SK-OV-3 ovarian; over 100 µM in the assay on SN12C renal; over 92.7 µM with SNB-19 CNS; over 100 µM with SR leukemia; over 65.5 µM with U251 CNS. For the same molecule, in the assay with UACC-257 melanoma, the TGI was over 100 µM.
For the molecule `O=c1cc(CO)oc(C(O)c2ccccc2)c1O` (configuration not stated), the TGI in the assay with 786-0 renal, in the assay with A549 NSCLC, in the assay with ACHN renal, in the assay on COLO 205 colon, in the assay with DU-145 prostate and in the assay on HCC-2998 colon was over 100 µM throughout. Besides, the TGI with HT29 colon, in the assay with LOX IMVI melanoma, in the assay with MDA-MB-231 breast, in the assay on MDA-MB-435, in the assay on NCI-H23 lung and with OVCAR-5 ovarian was over 100 µM throughout. Further, the TGI with PC-3 prostate, in the assay with SK-OV-3 ovarian, with SN12C renal, with SNB-19 CNS, in the assay on SR leukemia and in the assay on U251 CNS was over 100 µM in each case. Moreover, in the assay with UACC-257 melanoma, the TGI is over 100 µM.
